Measurements published in patent US20250145585A1, “HETEROCYCLIC INHIBITORS OF IGF-1R FOR TREATMENT OF DISEASE” (HORIZON THERAPEUTICS IRELAND DAC, priority 2023, published 2025).
Where a name gives a salt, the structure may show the parent alone.

biological target: T1, IGF-1R (Homo sapiens, UniProt P08069); assay: Example B-2: IGF-1R Assay (PathHunter cell lines, EC80 agonist challenge, chemiluminescent detection); format: cell-based; conditions: PathHunter cells, compound 60 minutes at 37° C., EC80 agonist 3 hours; read-out: IC50, Biological Activity against IGF-1R (Table B2)
T1 construct: expressed in transfected cells
T1 sequence (P08069 31-1367): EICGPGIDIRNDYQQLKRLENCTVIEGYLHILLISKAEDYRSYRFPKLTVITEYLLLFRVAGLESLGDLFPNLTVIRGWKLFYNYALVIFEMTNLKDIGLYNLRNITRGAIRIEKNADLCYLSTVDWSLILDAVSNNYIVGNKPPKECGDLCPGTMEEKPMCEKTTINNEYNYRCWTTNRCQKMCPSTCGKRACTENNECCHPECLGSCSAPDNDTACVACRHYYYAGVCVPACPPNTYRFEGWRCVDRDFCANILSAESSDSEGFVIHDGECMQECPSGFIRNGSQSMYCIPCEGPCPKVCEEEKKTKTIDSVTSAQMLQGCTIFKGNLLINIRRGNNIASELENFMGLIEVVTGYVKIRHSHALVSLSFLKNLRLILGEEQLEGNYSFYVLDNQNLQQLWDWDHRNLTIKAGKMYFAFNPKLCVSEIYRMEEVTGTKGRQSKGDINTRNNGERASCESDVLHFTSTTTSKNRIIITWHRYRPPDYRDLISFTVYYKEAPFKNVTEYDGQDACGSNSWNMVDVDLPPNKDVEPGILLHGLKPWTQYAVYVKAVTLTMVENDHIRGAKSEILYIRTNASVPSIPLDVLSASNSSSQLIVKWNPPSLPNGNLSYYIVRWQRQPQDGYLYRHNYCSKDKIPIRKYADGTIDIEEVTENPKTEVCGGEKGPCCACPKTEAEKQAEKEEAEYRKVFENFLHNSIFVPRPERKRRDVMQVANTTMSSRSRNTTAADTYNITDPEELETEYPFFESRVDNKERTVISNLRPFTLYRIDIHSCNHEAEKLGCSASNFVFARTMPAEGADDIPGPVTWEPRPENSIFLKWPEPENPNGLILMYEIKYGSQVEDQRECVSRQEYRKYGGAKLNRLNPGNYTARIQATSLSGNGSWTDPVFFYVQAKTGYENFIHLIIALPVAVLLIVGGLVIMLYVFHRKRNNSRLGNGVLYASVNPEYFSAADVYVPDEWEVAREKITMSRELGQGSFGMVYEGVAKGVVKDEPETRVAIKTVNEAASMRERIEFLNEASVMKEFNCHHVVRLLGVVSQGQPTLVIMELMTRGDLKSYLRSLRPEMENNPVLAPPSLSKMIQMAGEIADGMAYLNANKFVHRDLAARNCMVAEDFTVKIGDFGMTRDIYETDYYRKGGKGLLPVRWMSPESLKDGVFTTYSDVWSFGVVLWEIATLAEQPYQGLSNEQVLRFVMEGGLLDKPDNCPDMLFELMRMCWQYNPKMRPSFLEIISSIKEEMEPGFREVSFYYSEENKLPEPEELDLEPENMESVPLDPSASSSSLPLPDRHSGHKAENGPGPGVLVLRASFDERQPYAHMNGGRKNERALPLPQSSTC
In short: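 Read-out is PathHunter chemiluminescence, developed for 1 h at room temperature after a 3 h room-temperature EC80 agonist challenge that followed 60 min compound pre-treatment at 37° C (1% vehicle). IC50 comes from % inhibition normalized to EC80 and vehicle controls.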

IC50 [nM]	Compound
≤ 500	CC1CCc2c(CN3C(=O)N(c4ccc(C5(C(F)(F)F)CC5)cc4)C(=O)C3(C)C)ccnc2N1 (stereo not shown) [Compound 55, 5,5-dimethyl-1-((7-methyl-5,6,7,8-tetrahydro-1,8-naphthyridin-4-yl)methyl)-3-(4-(1-(trifluoromethyl)cyclopropyl)phenyl) imidazolidine-2,4-dione]
≤ 500	CN1CC(C)(C)c2ccc(N3C(=O)N(Cc4ccnc(N[C@H]5[C@@H]6COC[C@@H]65)c4)C(C)(C)C3=O)cc21 [Compound 218, 1-((2-(((1R,5S,6r)-3-oxabicyclo[3.1.0]hexan-6-yl)amino)pyridin-4-yl)methyl)-5,5-dimethyl-3-(1,3,3-trimethylindolin-6-yl)imidazolidine-2,4-dione]
≤ 500	CN(C)CC(=O)Nc1cc(N2C(=O)N(Cc3ccnc4c3CC(=O)N4)C(C)(C)C2=O)ccc1OC(F)(F)F [Compound 54, N-(5-(4,4-dimethyl-2,5-dioxo-3-((2-oxo-2,3-dihydro-1H-pyrrolo[2,3-b]pyridin-4-yl)methyl)imidazolidin-1-yl)-2-(trifluoromethoxy)phenyl)-2-(dimethylamino)acetamide]
2000 to 10000	CC(C)Nc1cc(CN2C(=O)N(c3cnc4c(c3)OCC4(C)C)C(=O)C2(C)C)ccn1 [Compound 193, 3-(3,3-dimethyl-2,3-dihydrofuro[3,2-b]pyridin-6-yl)-1-((2-(isopropylamino)pyridin-4-yl)methyl)-5,5-dimethylimidazolidine-2,4-dione]
≤ 500	CC1(C)C(=O)N(c2ccc(C3(C(F)(F)F)CCC3)cc2)C(=O)N1Cc1ccnc2c1CC(=O)N2 [Compound 30, 5,5-dimethyl-1-((2-oxo-2,3-dihydro-1H-pyrrolo[2,3-b]pyridin-4-yl)methyl)-3-(4-(1-(trifluoromethyl)cyclobutyl)phenyl)imidazolidine-2,4-dione hydrochloride]
> 10000	CC(C)Nc1cc(CN2C(=O)N(c3ccc4c(c3)C(O)(O)C(F)(F)S4(=O)=O)C(=O)C2(C)C)ccn1 [Compound 192, 3-(2,2-difluoro-3,3-dihydroxy-1,1-dioxido-2,3-dihydrobenzo[b]thiophen-5-yl)-1-((2-(isopropylamino)pyridin-4-yl)methyl)-5,5-dimethylimidazolidine-2,4-dione]
> 10000	CC1(C)C(=O)N(c2ccc3c(c2)CCS3(=O)=O)C(=O)N1Cc1ccnc(N[C@H]2[C@@H]3COC[C@@H]32)c1 [Compound 250, 1-((2-(((1R,5S,6r)-3-oxabicyclo[3.1.0]hexan-6-yl)amino)pyridin-4-yl)methyl)-3-(1,1-dioxido-2,3-dihydrobenzo[b]thiophen-5-yl)-5,5-dimethylimidazolidine-2,4-dione]
≤ 500	C[C@H](Nc1cc(CN2C(=O)N(c3ccc4c(c3)N(S(C)(=O)=O)CC43CCC3)C(=O)C2(C)C)ccn1)c1cccnc1 [Compound 243, (S)-5,5-dimethyl-3-(1′-(methylsulfonyl)spiro[cyclobutane-1,3′-indolin]-6′-yl)-1-((2-((1-(pyridin-3-yl)ethyl)amino)pyridin-4-yl)methyl)imidazolidine-2,4-dione]

biological target: T1, IGF-1R; assay: Example B-1: IGF-1R Assay (PC3 cells stimulated with IGF1, AlphaLISA on cell lysates); format: cell-based; conditions: compound two hours, IGF1 200 ng/mL for 30 min, read-out: IC50, Biological Activity against IGF-1R (Table B1)
Protocol: 50K PC3 cells were seeded on day 1 in 50 μL of media in 96-well plate and incubated overnight at 37° C., 5% CO2. On day 2, all cells were expected to be at 80-90% confluency. Cells were starved for two hours by changing the media to 90 μL of EMEM serum-free media and incubated for 2 hours. Next, cells were treated with 10 μL of 10× concentrated and 3× serially diluted compounds for two hours. It makes 1× of compounds in 100 μL media. This was followed by stimulation of cells with 11×IGF1 for 30 min in 10 μL of serum-free EMEM media at the final concentration of 200 ng/mL.
The media was removed and replaced by 50 μL of 1× lysis buffer from the AlphaLISA kit (with 1× of cOmplete™ protease inhibitor). The plates were sealed, and cells were allowed to lyse for 10 min in the shaker before storing the plate at −20° C. until used. The AlphaLISA assay with processed cell lysates were performed as described in the protocol. Briefly, 10 μL of the undiluted sample were loaded to 384 well Optiplates and 5 μL of the acceptor mix (as described in the AlphaLISA kit) was added to each well. The plates were sealed and briefly vortexed followed by the incubation at RT for 3 hours. In the dark, 5 μL of donor mix was added to each well. All plates were sealed and stored at RT overnight. The plates were read in EnVision reader using standard AlphaLISA settings.
Compound activity was analyzed using CBIS data analysis suite (Cheminnovation, CA). Percentage inhibition was calculated using the following formula: % I-hibition=100%×(1−(mea−RLU of test sample−mean RLU of vehicle control)/(mean-RLU of EC80 control−mean RLU of vehicle control)). The activity for representative examples of the invention is shown in the following table, wherein A: IC50≤500 nM; B: 500 nM<IC50≤2 μM; C: 2 μM<IC50≤10 μM; D: IC50>10 μM.

Compound	IC50 [nM]
CC1(C)C(=O)N(c2ccc(SC(F)(F)F)cc2)C(=O)N1Cc1ccnc(NC(=O)C2NCC23CCCCC3)c1 (stereo not shown) [Compound 305, N-(4-((5,5-dimethyl-2,4-dioxo-3-(4-((trifluoromethyl)thio)phenyl)imidazolidin-1-yl)methyl)pyridin-2-yl)-2-azaspiro[3.5]nonane-1-carboxamide]	2000 to 10000
Cc1[nH]c2nccc(CN3C(=O)N(c4ccc(C5(C(F)(F)F)CC5)cc4)C(=O)C3(C)C)c2c1Cl [Compound 10, 1-((3-chloro-2-methyl-1H-pyrrolo[2,3-b]pyridin-4-yl)methyl)-5,5-dimethyl-3-(4-(1-(trifluoromethyl)cyclopropyl)phenyl) imidazolidine-2,4-dione]	≤ 500
5,5-dimethyl-1-((2-((2-methyl- 3-oxoisoindolin-5- yl)amino)pyridin-4-yl)methyl)- 3-(4- ((trifluoromethyl)thio)phenyl) amidazolidine-2,4-dione [Compound 272]	≤ 500
CC(C)Nc1cc(CN2C(=O)N(c3ccc(C4(F)CC4)cc3)C(=O)C2(C)C)ccn1 [Compound 99, 3-(4-(1-fluorocyclopropyl)phenyl)-1-((2-(isopropylamino)pyridin-4-yl)methyl)-5,5-dimethylimidazolidine-2,4-dione]	500 to 2000
CC1(C)C(=O)N(c2ccc(C(C)(C)C(F)(F)F)cc2)C(=O)N1Cc1ccnc(N)c1 [Compound 95, 1-((2-aminopyridin-4-yl)methyl)-5,5-dimethyl-3-(4-(1,1,1-trifluoro-2-methylpropan-2-yl)phenyl)imidazolidine-2,4-dione]	≤ 500
CCC1(C)C(=O)N(c2ccc(SC(F)(F)F)cc2)C(=O)N1Cc1ccnc(N)c1 (stereo not shown) [Compound 297, 1-((2-aminopyridin-4-yl)methyl)-5-ethyl-5-methyl-3-(4-((trifluoromethyl)thio)phenyl)imidazolidine-2,4-dione]	≤ 500

Next, values leading:

IC50 [nM]	Compound
≤ 500	CC1(C)C(=O)N(c2ccc(SC(F)(F)F)cc2)C(=O)N1Cc1ccnc(N)c1F [Compound 380, 1-((2-amino-3-fluoropyridin-4-yl)methyl)-5,5-dimethyl-3-(4-((trifluoromethyl)thio)phenyl) imidazolidine-2,4-dione]
≤ 500	CC1(C)C(=O)N(c2ccc(SC(F)(F)F)cc2)C(=O)N1Cc1ccnc(NC(=O)c2cccnc2)c1 [Compound 360, N-(4-((5,5-dimethyl-2,4-dioxo-3-(4-((trifluoromethyl)thio)phenyl)imidazolidin-1-yl)methyl)pyridin-2-yl)nicotinamide]
500 to 2000	CC1(C)C(=O)N(c2ccc(SC(F)(F)F)cc2)C(=O)N1Cc1ccnc(Nc2cccc(O)n2)c1 [Compound 362, 1-((2-((6-hydroxypyridin-2-yl)amino)pyridin-4-yl)methyl)-5,5-dimethyl-3-(4-((trifluoromethyl)thio)phenyl) imidazolidine-2,4-dione]
≤ 500	Cc1ccncc1Nc1cc(CN2C(=O)N(c3ccc(SC(F)(F)F)cc3)C(=O)C2(C)C)ccn1 [Compound 358, 5,5-dimethyl-1-((2-((4-methylpyridin-3-yl)amino)pyridin-4-yl)methyl)-3-(4-((trifluoromethyl)thio)phenyl) imidazolidine-2,4-dione]
≤ 500	CC1(C)C(=O)N(c2ccc(SC(F)(F)F)cc2)C(=O)N1Cc1cc(N)ncn1 [Compound 396, 1-((6-aminopyrimidin-4-yl)methyl)-5,5-dimethyl-3-(4-((trifluoromethyl)thio)phenyl) imidazolidine-2,4-dione]
≤ 500	CC1(C)C(=O)N(c2ccc(SC(F)(F)F)cc2)C(=O)N1Cc1ccnc(NC2CCCC2)c1 [Compound 369, 1-((2-(cyclopentylamino)pyridin-4-yl)methyl)-5,5-dimethyl-3-(4-((trifluoromethyl)thio)phenyl) imidazolidine-2,4-dione]
500 to 2000	CC(C)(C)c1ccc(N2C(=O)N(Cc3ccnc(-c4ccccc4)c3)C(C)(C)C2=O)cc1 [Compound 346, 3-(4-(tert-butyl)phenyl)-5,5-dimethyl-1-((2-phenylpyridin-4-yl)methyl)imidazoline-2,4-dione]
2000 to 10000	CSc1ccc(N2C(=O)N(Cc3ccnc(N)c3)C(C)(C)C2=O)cc1 [Compound 395, 1-((2-aminopyridin-4-yl)methyl)-5,5-dimethyl-3-(4-(methylthio)phenyl)imidazolidine-2,4-dione]
2000 to 10000	CC(C)Nc1cc(CN2C(=O)N(c3ccc(SC(F)(F)F)cc3)C(=O)C2(C)C)cnn1 [Compound 386, 1-((6-(isopropylamino)pyridazin-4-yl)methyl)-5,5-dimethyl-3-(4-((trifluoromethyl)thio)phenyl) imidazolidine-2,4-dione]
≤ 500	Cn1cc(NC(=O)Nc2cc(CN3C(=O)N(c4ccc(SC(F)(F)F)cc4)C(=O)C3(C)C)ccn2)cn1 [Compound 350, 1-(4-((5,5-dimethyl-2,4-dioxo-3-(4-((trifluoromethyl)thio)phenyl)imidazolidin-1-yl)methyl)pyridin-2-yl)-3-(1-methyl-1H-pyrazol-4-yl)urea]
≤ 500	CN1CC(Oc2ccc(Nc3cc(CN4C(=O)N(c5ccc(SC(F)(F)F)cc5)C(=O)C4(C)C)ccn3)cc2)C1 [Compound 349, 5,5-dimethyl-1-((2-((4-((1-methylazetidin-3-yl)oxy)phenyl)amino)pyridin-4-yl)methyl)-3-(4-((trifluoromethyl)thio)phenyl) imidazolidine-2,4-dione]
